Measurements published in patent US9554979B2, “Hair care compositions and methods of use” (The Procter & Gamble Company, priority 2011, dated 2017).
Read-outs that look alike come from different tables or passages of the source.

What was measured:
[1] = Qualitative experimental solubility scoring of apigenin in 32 solvents; assay type: physicochemical; parameters: key: 1 = Completely Dissolved; 2 = Very Swollen; 3 = Swollen; 4 = Slightly Swollen; 5 = Hardly Swollen; 6 = Not touched; — = Assignment Unclear
Protocol: (§1) HSPs and the solubility sphere for apigenin are optimized using the fitting method in the software HSPIP version 3.1.06 from Charles M. Hansen Consulting, Hørsholm, Denmark, hansen-solubility.com. Qualitative experimental solubilities for apigenin in 32 diverse potential solvents are determined using the scoring system at the bottom of Table 1. In the fitting function within HSPiP, solvents with scores of 1 and those with scores of 2-5 are categorized as “good” and “bad” solvents, respectively. […] Because the radius can be unbounded, fits with radii larger than 95% of the radius distribution are removed from these 50 trials (≦8.5 MPa^0.5). • 2. Determine the ranges for δD, δP, δH for the remaining fits. • 3. Locate the fit closest to this point using the Ra equation above. • 4. Chose the values for δD, δP, δH from Step 2 for the HSP's and the value of Ra from Step 3 for the radius.

[2] = Experimentally observed apigenin solubility in solubilizing agents and solvents; assay type: physicochemical
Excerpt: Non-limiting examples of solubilizing agents, which have suitable Hansen Solubility Parameters and may be used to solubilize apigenin include triethanolamine (CAS No. 102-71-6); diethanolamine (CAS No. 203-868-0); ethanolamine (CAS No. 141-43-5); N-methylformamide (CAS No. 123-39-7); 2-dimethylaminoethanol (CAS No. 203-542-8); 2-dimethylamino-2-propanol (108-16-7); ethylenediamine (CAS No. 107-15-3); 2-amino-2-methyl-1-propanol (CAS No. 124-68-5); laurocapram (CAS No. 59227-89-3); and dimethyl capramide (Spectrasolv, CAS No. 14433-76-2). Non-limiting examples of solvents, which have suitable Hansen Solubility Parameters and may be used in combination with one or more solubilizing agents include dipropyleneglycol (CAS No. 110-98-5); propylene glycol (Hydrolite™ 5, CAS No. […]); butylene glycol (CAS No. 107-88-0); 1,4-butanediol (CAS No. 110-63-4); 3-allyloxy-1,2-propanediol (CAS No. 123-34-2); dipropylene glycol n-butyl ether (CAS No. 29911-28-2); 1,2-hexanediol (CAS No. 6920-22-5); dimethyl isosorbide (Arlasolve™ CAS No. 5306-85-4); ethanol (CAS No. 64-17-5); 1,3-butanediol (CAS No. 107-88-0); 1,3-propanediol (CAS No. 504-63-2); 2,2′-thiodiethanol (CAS No. 111-48-8); and 1,6-hexanediol (CAS No. 629-11-8). Table 2 provides a summary of various solubilizing agents and solvents and their respective HSP values, along with experimentally observed apigenin solubility.

[3] = Apigenin premixtures with various solubilizing agents, solubility; assay type: physicochemical; details: organic solvent or mixture, thermodynamic from solid
Protocol: According to another embodiment of the invention, a process for preparing a hair care composition includes mixing apigenin and a solubilizing agent at a temperature sufficient to allow dissolution of the apigenin in the solubilizing agent to form a premixture; combining the premixture with an aqueous carrier to form the hair care composition; and optionally, adjusting the pH of the hair care composition with acid to within a range from about 3 to about 10. The premixture is prepared by combining apigenin and one or more solubilizing agents. Solubilization energy (e.g., stiffing, sonication, milling, heat, etc.) may be applied to accelerate the dissolution process. For example, a premixture of apigenin in triethanolamine may be prepared by combining apigenin and triethanolamine in a single vessel and heating the mixture to 70° C. while stirring until a clear solution results. According to one aspect of the exemplary method of making the premixture, the combined apigenin and triethanolamine are mixed at 50-100 rpm using a IKA RET CV-S1 mixer. According to another aspect, the combination is mixed at 300-500 rpm using a IKA Eurostar PWR CV-S1 mixer.

[4] = Hansen Solubility Parameter fitting for apigenin (HSPiP); details: fitted in HSPiP v. 3.1.06 from solubility scores in 32 solvents
Protocol: as §1
Using this protocol, apigenin HSP values and solvent radius are determined to be δD=18.7, δP=13.5, δH=13.9 and Ra=6.8 (all in MPa^0.5). This sphere defines the initial region encompassing solvents into which apigenin will be soluble. (Note HSPiP v. 3.1.06 is used herein to determine all HSPs by 1) lookup if available within the program's internal database; 2) estimation if not in the database using the Y-MB method; or 3) via the procedure described above (apigenin only).)

[5] = in water and nearly all solvents suitable for pharmaceutical, cosmetic, and food additive formulations (practically insoluble); cited from earlier work

For O=c1cc(-c2ccc(O)cc2)oc2cc(O)cc(O)c12 [apigenin, 5,7-dihydroxy-2-(4-hydroxyphenyl)-4H-1-benzopyran-4-one], the “Solubility Score” value ([1]; in 1,4-Dioxane) was 5, the “Solubility Score” value ([1]; in 1-Butanol) was 4 and the “Solubility Score” value ([1]; in 2-Phenoxy Ethanol) was 4. The “Solubility Score” value ([1]; in 2-Propanol) was 4, the “Solubility Score” value ([1]; in Acetone) was 5 and the “Solubility Score” value ([1]; in Acetonitrile) was 5. The “Solubility Score” value ([1]; in Carbon Tetrachloride) was 6, the “Solubility Score” value ([1]; in Chloroform) was 5 and the “Solubility Score” value ([1]; in Cyclohexane) was 6. The “Solubility Score” value ([1]; in Cyclohexanol) was 4, the “Solubility Score” value ([1]; in Cyclohexanone) was 4 and the “Solubility Score” value ([1]; in Diacetone Alcohol) was 4. The “Solubility Score” value ([1]; in Dichloromethane) was 5, the “Solubility Score” value ([1]; in Dimethyl Formamide (DMF)) was 1 and the “Solubility Score” value ([1]; in Dimethyl Sulfoxide (DMSO)) was 1. For the same molecule, the “Solubility Score” value ([1]; in Ethyl Acetate) was 5, the “Solubility Score” value ([1]; in Hexane) was 6 and the “Solubility Score” value ([1]; in Methanol) was 4. The “Solubility Score” value ([1]; in Methyl Ethyl Ketone (MEK)) was 5, the “Solubility Score” value ([1]; in Methyl Isobutyl Ketone (MIBK)) was 5 and the “Solubility Score” value ([1]; in N-Methyl-2-Pyrrolidone (NMP)) was 1. For the same molecule, the “Solubility Score” value ([1]; in N-methylformamide) was 1, the “Solubility Score” value ([1]; in Propylene Carbonate) was 5 and the “Solubility Score” value ([1]; in Propylene Glycol Monomethyl Ether) was 2. The “Solubility Score” value ([1]; in Propylene Glycol Monomethyl Ether Acetate) was 5, the “Solubility Score” value ([1]; in Tetrahydrofuran (THF)) was 4 and the “Solubility Score” value ([1]; in Toluene) was 6. For the same molecule, the “Solubility Score” value ([1]; in gamma-Butyrolactone (GBL)) was 4, the “Solubility Score” value ([1]; in n-Butyl Acetate) was 5 and the “Solubility Score” value ([1]; in n-Butyl Acrylate) was 5. The “Solubility Score” value ([1]; in p-Xylene) was 6, the Experimental solubility ([2]; in 1,2-hexanediol at 90 C.) was 0.4% at 90 C and the Experimental solubility ([2]; in 1,3-butanediol at 98 C.) was 1.52% at 98 C. The Experimental solubility ([2]; in 1,3-propanediol at 100 C.) was 0.73% at 100 C, the Experimental solubility ([2]; in 1,4-butanediol at 110 C.) was 1.0% at 110 C and the Experimental solubility ([2]; in 1,6-Hexanediol at 137 C.) was 4.12% at 137 C. For the same molecule, the Experimental solubility ([2]; in 2,2′-thiodiethanol at 103 C.) was 0.47% at 103 C, the Experimental solubility ([2]; in 2-amino-2-methyl-1-propanol at 71 C.) was 20.03% at 71 C and the Experimental solubility ([2]; in 2-dimethylamino-2-propanol (CAS 108-16-7) at 21 C.) was 20.18% at 21 C. The Experimental solubility ([2]; in 2-dimethylaminoethanol at 29 C.) was 19.95% at 29 C, the Experimental solubility ([2]; in 3-allyloxy-1,2-propanediol at 120 C.) was 1.0% at 120 C and the Experimental solubility ([2]; in Dimethyl capramide at RT) was 16.0% at RT. The Experimental solubility ([2]; in Ethanol at 21 C. and 50 C.) was 0.32% at 21 C. and 50 C, the Experimental solubility ([2]; in Laurocapram at 21 C.) was 13.0% at 21 C and the Experimental solubility ([2]; in N-methylformamide) was “Ppt upon cooling”. It also gave an Experimental solubility ([2]; in butylene glycol at 98 C.) of 1.52% at 98 C, an Experimental solubility ([2]; in diethanolamine at 128 C.) of 20.25% at 128 C and an Experimental solubility ([2]; in dimethyl isosorbide at 100 C.) of 1.54% at 100 C. For the same molecule, the Experimental solubility ([2]; in dipropylene glycol n-butyl ether at 90 C.) was 0.6% at 90 C, the Experimental solubility ([2]; in dipropyleneglycol at 115 C.) was 2.19% at 115 C and the Experimental solubility ([2]; in ethanolamine at 76 C.) was 20.31% at 76 C. For the same molecule, the Experimental solubility ([2]; in ethylenediamine at 28 C.) was 20.03% at 28 C, the Experimental solubility ([2]; in propylene glycol (CAS 5343-92-0) at 100 C.) was 0.62% at 100 C and the Experimental solubility ([2]; in triethanolamine at 165 C.) was 12.7% at 165 C. The solubility ([3]; 1-Dimethylamino-2-propanol solution, in 1-Dimethylamino-2-propanol solution, room temp, 300 rpm) was 20.2 mg/mL, the solubility ([3]; 1-dimethylamino-2-propanol, in 1-Dimethylamino-2-propanol solution, room temp, 1500 sm) was 20 mg/mL and the solubility ([3]; 1-dimethylamino-2-propanol/TEA, in 1-Dimethylamino-2-propanol/TEA, room temp, 300-810 rpm) was 17.3 mg/mL. For the same molecule, the solubility ([3]; 1-dimethylamino-2-propanol/ethanolamine, in 1-Dimethylamino-2-propanol/Ethanolamine, room temp, 300 rpm) was 16.6 mg/mL, the solubility ([3]; 1-dimethylamino-2-propanol/ethanolamine/TEA, in 1-Dimethylamino-2-propanol/Ethanolamine/TEA, room temp, 300-500 rpm) was 16.5 mg/mL and the solubility ([3]; 1-dimethylamino-2-propanol/ethylenediamine, in 1-Dimethylamino-2-propanol/Ethylenediamine, room temp, 400-600 rpm) was 20.1 mg/mL. It also gave a solubility ([3]; 1-methylimidazole, 82 °C, in 1-Methylimidazole, 100 rpm) of 20.4 mg/mL, a solubility ([3]; 2-amino-2-methyl-1-propanol, 71 °C, in 2-amino-2-methyl-1-propanol, 400 rpm) of 20 mg/mL and a solubility ([3]; 2-amino-2-methyl-1-propanol, 71 °C, in 2-amino-2-methyl-1-propanol, 450 rpm) of 14.8 mg/mL. It also gave a solubility ([3]; 2-dimethylaminoethanol, 29 °C, in 2-Dimethylaminoethanol, 300 rpm) of 19.9 mg/mL, a solubility ([3]; 2-dimethylaminoethanol, in 2-Dimethylaminoethanol, room temp, 300 rpm) of 20.2 mg/mL and a solubility ([3]; Dimethyl capramide, in Dimethyl capramide, Room temp, 400 rpm) of 16 mg/mL. It also gave a solubility ([3]; N-methylformamide, 101 °C, in N-Methylformamide, 400 rpm) of 13.7 mg/mL, a solubility ([3]; TEA (triethanolamine), 169 °C, in TEA, 450 rpm (synthetic apigenin)) of 14.7 mg/mL and a solubility ([3]; TEA (triethanolamine), in TEA, room temp, 450-590 rpm) of 20 mg/mL. It also gave a solubility ([3]; TEA/1-Dimethylamino-2-propanol, in TEA/1-Dimethylamino-2-propanol, room temp, 350-450 rpm) of 17 mg/mL, a solubility ([3]; TEA/1-Dimethylamino-2-propanol/Ethylenediamine, in TEA/1-Dimethylamino-2-propanol/Ethylenediamine, room temp, 330-600 rpm) of 20.6 mg/mL and a solubility ([3]; TEA/2-Dimethylaminoethanol/1-Dimethylamino-2-propanol, in TEA/2-Dimethylaminoethanol/1-Dimethylamino-2-propanol, room temp, 330-400, 1500 sm) of 15 mg/mL. It also gave a solubility ([3]; TEA/2-Dimethylaminoethanol/1-Dimethylamino-2-propanol, in TEA/2-Dimethylaminoethanol/1-Dimethylamino-2-propanol, room temp, 1500 sm) of 15 mg/mL, a solubility ([3]; Triethylene glycol, 156 °C, in Triethylene glycol, 300 rpm) of 6.11 mg/mL and a solubility ([3]; diethanolamine, 128 °C, in Diethanolamine, 550 rpm) of 20.2 mg/mL. For the same molecule, the solubility ([3]; ethanolamine, 29 °C, in Ethanolamine, 350-500 rpm) was 20.1 mg/mL, the solubility ([3]; ethanolamine, 76 °C, in Ethanolamine, 300 rpm) was 20.3 mg/mL and the solubility ([3]; ethanolamine, 76 °C, in Ethanolamine, 400 rpm (synthetic apigenin)) was 20.2 mg/mL. It also gave a solubility ([3]; ethanolamine, in Ethanolamine, room temp, 350-740 rpm) of 20.2 mg/mL, a solubility ([3]; ethanolamine/TEA, 29 °C, in Ethanolamine/TEA, 300-600 rpm) of 18 mg/mL and a solubility ([3]; ethanolamine/TEA, in Ethanolamine/TEA, room temp, 350-500 rpm) of 16 mg/mL. It also gave a solubility ([3]; ethylenediamine, 28 °C, in Ethylenediamine, 320 rpm) of 20 mg/mL, a solubility ([3]; ethylenediamine, in Ethylenediamine, room temp, 320 rpm) of 20.2 mg/mL and a solubility ([3]; laurocapram, 98%, 140 °C, in Laurocapram, 500-600 rpm) of 14 mg/mL. The solubility ([3]; laurocapram, 98%, in Laurocapram, room temp, 500-600 rpm) was 13.9 mg/mL, the solubility ([3]; pyridine, in Pyridine, room temp, 300 rpm) was 15.8 mg/mL and the “HSP δD (dispersion-force component)” value [4] was 18.7 MPa^0.5. For the same molecule, the “HSP δH (hydrogen-bonding component)” value [4] was 13.9 MPa^0.5, the “HSP δP (polar component)” value [4] was 13.5 MPa^0.5 and the “solvent radius Ra” value [4] was 6.8 MPa^0.5. For the same molecule, the solubility [5] was “less than 1 mg/ml”.
